# Test system: active D-proline reductase
# Test: Conversion of D-proline analog substrates by E. coli cells expressing active D-proline reductase (PrdA, PrdB, PrdH), TLC analysis
# Assay type: biochemical, Peptoclostridium difficile 630
# Details: substrate 10 mM, DTT 25 mM, 6 hours, E. coli BL21(DE3) cells OD 50 in 0.1 M phosphate buffer pH 8.0, TLC
# Experimental: The obtained E. coli cells were adjusted to a final OD of 50, followed by centrifugation. After primary washing, E. coli cells were diluted with 1 mL of 0.1 M phosphate buffer (pH 8.0). Next, each 200 ul of the diluted samples was dispensed, and DTT (final concentration of 25 mM) and various substrates (final concentration of 10 mM, FIG. 11A) were added and allowed to react for 6 hours, followed by TLC analysis.
# When cis-4-hydroxy-D-proline or trans-4-hydroxy-D-proline is subjected to the conversion reaction, 5-amino-4-hydroxypentanoic acid is produced.
SMILES,product formation on TLC after the conversion reaction,"reaction rate of the conversion by D-proline reductase, compared with D-proline"
O=C(O)[C@H]1CCN1 [D-azetidine-2-carboxylic acid],GABA production was clearly observed on TLC,"relatively low reaction rate, as compared with D-proline"
O=C(O)[C@H]1C[C@@H](O)CN1 [cis-4-hydroxy-D-proline],substrate reduction on TLC and newly formed TLC spot were observed,"relatively low reaction rate, as compared with D-proline"
O=C(O)[C@H]1C[C@H](O)CN1 [trans-4-hydroxy-D-proline],substrate reduction on TLC and newly formed TLC spot were observed,"relatively low reaction rate, as compared with D-proline"

# Reference: patent US11708564B2 (priority 2017, dated 2023)
